The NIST ThermoML archive (doi:10.1016/j.jct.2012.11.002)

Conditions: Liquid, Vibrating tube method

CCOC(=O)C(C)O (racemic) [DL-ethyl lactate]
mass density [kg/m3]
Conditions	100 kPa	2500 kPa	5000 kPa	7500 kPa	10000 kPa	20000 kPa	30000 kPa	40000 kPa	50000 kPa	60000 kPa
283.15 K	1045.06	1046.77	1048.51	1050.24	1051.88	1058.39	1064.45	1070.13	1075.5	1080.55
288.15 K	1039.64	1041.39	1043.21	1044.99	1046.74	1053.28	1059.46	1065.24	1070.74	1076.04
293.15 K	1034.25	1036.05	1037.86	1039.7	1041.5	1048.3	1054.58	1060.54	1066.26	1071.55
298.15 K	1028.78	1030.66	1032.56	1034.43	1036.23	1043.21	1049.76	1055.69	1061.53	1066.96
303.15 K	1023.32	1025.21	1027.24	1029.11	1031	1038.26	1044.91	1051.19	1056.95	1062.52
308.15 K	1017.84	1019.82	1021.87	1023.84	1025.7	1033.08	1039.92	1046.28	1052.19	1057.98
313.15 K	1012.33	1014.31	1016.42	1018.41	1020.39	1027.93	1034.97	1041.52	1047.69	1053.46
318.15 K	1006.72	1008.86	1011.01	1013.1	1015.13	1022.87	1030.04	1036.74	1042.96	1048.96
323.15 K	1001.23	1003.36	1005.56	1007.68	1009.78	1017.76	1025.13	1031.99	1038.42	1044.49
328.15 K	995.54	997.8	1000.11	1002.34	1004.46	1012.65	1020.17	1027.16	1033.75	1039.99
333.15 K	989.91	992.19	994.55	996.87	999.06	1007.62	1015.4	1022.5	1029.24	1035.71
338.15 K	984.3	986.71	989.18	991.49	993.65	1002.34	1010.27	1017.75	1024.55	1031.04
